Molecular target: T1, HA-I841A CaSR mutant (Rattus norvegicus, UniProt P48442, I841A)
T1 construct: mGluR5 signal peptide (N); expressed in transfected cells; host or cells: HEK293T
T1 sequence (P48442 20-1079 I841A): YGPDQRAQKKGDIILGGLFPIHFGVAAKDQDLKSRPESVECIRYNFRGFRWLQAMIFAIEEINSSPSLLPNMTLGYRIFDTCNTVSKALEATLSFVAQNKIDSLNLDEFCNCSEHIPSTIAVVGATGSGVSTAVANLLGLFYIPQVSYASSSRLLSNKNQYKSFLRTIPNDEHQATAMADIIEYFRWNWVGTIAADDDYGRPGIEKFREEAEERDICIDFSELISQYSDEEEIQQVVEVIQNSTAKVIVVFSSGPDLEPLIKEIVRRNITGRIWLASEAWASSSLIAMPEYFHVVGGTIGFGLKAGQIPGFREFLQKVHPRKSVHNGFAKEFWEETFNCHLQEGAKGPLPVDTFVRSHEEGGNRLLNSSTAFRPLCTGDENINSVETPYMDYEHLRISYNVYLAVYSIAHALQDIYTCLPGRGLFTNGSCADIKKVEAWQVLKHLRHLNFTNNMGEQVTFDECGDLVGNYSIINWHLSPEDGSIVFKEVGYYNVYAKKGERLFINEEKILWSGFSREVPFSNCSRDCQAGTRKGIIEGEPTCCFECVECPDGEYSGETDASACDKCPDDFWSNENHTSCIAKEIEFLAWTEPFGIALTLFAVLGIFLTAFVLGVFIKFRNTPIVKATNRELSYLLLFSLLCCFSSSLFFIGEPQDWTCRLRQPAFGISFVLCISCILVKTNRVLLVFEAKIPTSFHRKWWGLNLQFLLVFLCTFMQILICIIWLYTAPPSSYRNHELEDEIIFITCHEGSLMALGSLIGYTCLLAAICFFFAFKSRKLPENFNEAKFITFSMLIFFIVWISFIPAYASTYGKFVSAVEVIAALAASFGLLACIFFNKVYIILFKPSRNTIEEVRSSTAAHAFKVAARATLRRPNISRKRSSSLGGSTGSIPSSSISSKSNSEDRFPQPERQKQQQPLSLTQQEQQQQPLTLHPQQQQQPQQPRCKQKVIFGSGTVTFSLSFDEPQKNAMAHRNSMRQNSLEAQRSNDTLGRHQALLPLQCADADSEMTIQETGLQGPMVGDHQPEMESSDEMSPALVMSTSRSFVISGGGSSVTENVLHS
Assay: IP-One assay, HEK293T transiently transfected
Type: cell-based

## [Ca+2] [Ca^2+]
Ca^2+ alone
  EC50: 2.59 mM
  pEC50 ± S.E.M.: 2.59 ± 0.01
Ca^2+ alone, normalized to maximum response of WT CaSR
  Max ± S.E.M.: 81 ± 14%
Ca^2+ with 1 μM NPS R-568
  EC50: 3.68 mM
Ca^2+ with 1 μM NPS R-568, normalized to maximum response with Ca^2+ alone for the construct
  Max ± S.E.M.: 99 ± 18%
Ca^2+ with 5 μM NPS 2143
  EC50: 5.29 mM
  pEC50 ± S.E.M.: 2.28 ± 0.03
Ca^2+ with 5 μM NPS 2143, normalized to maximum response with Ca^2+ alone for the construct
  Max ± S.E.M.: 97 ± 7.6%

Reference: publication PMC5394417, “Investigating the molecular mechanism of positive and negative allosteric modulators in the calcium-sensing receptor dimer” (Scientific Reports, 2017)
